2 molecules from patent publication US4055640A, “Compositions and methods for controlling the growth of bacteria, fungi and algae using certain derivatives of N-(2,2-dichlorovinyl)salicylamides” (Nippon Kayaku Co., Ltd., priority 1975, dated 1977) can be followed below.

Series [1] deals with Xanthomonas citri (citrus canker). In words: Exterminating test on citrus canker (Experimental Example 6). It is filed as in vivo. The settings on record: 1,000 ppm, 2 weeks after inoculation. In short, it runs like this:
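Four-year-old potted summer orange seedlings sprayed with diluted 80% wettable powder, then needle-inoculated on leaves with Xanthomonas citri and held 24 h moist at 25 °C before greenhouse. Disease attack scored 2 weeks post-inoculation and expressed as an Effect Index.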

Another series has as its system summer orange seedlings. The series can be described thus: Phytotoxicity on summer orange seedlings (Experimental Example 6). In kind it is in vivo. The settings on record: 1,000 ppm.
Another series has as its system Cladosporium harbarum. The series can be described thus: Minimum inhibitory amount, dilution methods (Example 24). In kind it is cell-based. As to conditions: (1) potato-dextrose agar dilution method. An excerpt: (§1) Bactericidal activity and fungicidal activity of the active compounds of the present invention were examined by potato-dextrose agar dilution method, or [2] glucose bouillon medium dilution method. The results are shown in Table 10 below as the minimum inhibitory concentration (the minimum concentration of active compound found to produce 100% control of the test bacteria and fungi).

Another series relates to Staphylococcus aureus. The series is described as above. In kind it is cell-based. As to conditions: (2) glucose bouillon medium dilution method.
Source text: as §1

Series [2] concerns Aspergillus niger. The description is as above. It is filed as cell-based. As to conditions: (1) potato-dextrose agar dilution method.
Source text: as §1
In general terms: In agar dilution, organisms are placed on agar that contains the substance at set levels.

The test system of series [3] is Bacillus subtilis. Described as above. In kind it is cell-based. As to conditions: (2) glucose bouillon medium dilution method.
Source text: as §1

The test system of the next series is Escherichia coli. The description is as above. As to conditions: (2) glucose bouillon medium dilution method. In kind it is cell-based.
Source text: as §1

Series [4] has as its system Penicillium Citrinum. Described as above. As to conditions: (1) potato-dextrose agar dilution method. In kind it is cell-based.
Source text: as §1

The subject of series [5] is seedling blight of rice plant (pathogen Fusarium sp. and Rhizoctonia sp.). In words: Exterminating test on seedling blight of rice plant (Experimental Example 1). The settings on record: 0.25g/box a.i., 5% dust mixed with soil. It is filed as in vivo. An outline of the steps:
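Pathogen-contaminated nursery soil (Fusarium sp., Rhizoctonia sp.) mixed with 5% compound dust at 5 g per box; Nihonbare rice sown, grown 7 days at 17° C in lighting chamber, then moved to field. Assessed 10 days later as percentage of healthy seedlings; commercial 4% hydroxyisoxazol dust run as control.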

For series [6], the system named is Aspergillus niger, Penicillium citrinum, Cladosporium harbarum and chaetomium globosum. In words: Degree of growth inhibition of fungi on treated beach plates (Example 25). In kind it is cell-based. On the set-up: scale not given here. As to conditions: numerical rating, 2 weeks. In short, it runs like this: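 Beech plates 5 cm square and 5 mm thick were dipped for 2 min in emulsifiable concentrate diluted 400- and 800-fold in water, then dried 24 h at room temperature. Plates were set on agar, sprayed with fungal spore suspensions and incubated 2 weeks at 28 °C and 95% humidity; growth inhibition was scored on a numerical rating.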

Series [7] has as its system Rhizoctonia solani (damping-off of cucumber). The series can be described thus: Exterminating test on damping-off of cucumber (Experimental Example 3). It is filed as in vivo. As to conditions: 1,000 ppm, soil drench 50 ml per pot, 10 days. An outline of the steps:
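Percentage of healthy seedlings was scored 10 days post inoculation, with PCNB 50% wettable powder run alongside as reference. Each pot held 10 Azumamidori cucumber seeds in field soil carrying 5 g Rhizoctonia solani. Soil drench: 50 ml water suspension of 80% wettable powder; greenhouse.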

In series [8] the test system is Fusarium wilt of cucumber. In words: Exterminating test on Fusarium wilt of cucumber (Experimental Example 4). It is filed as in vivo, Fusarium oxysporum f, cucumerinum. The settings on record: 500 ppm, soil drench 100 ml per pot, two weeks. In short, it runs like this: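 Pots of steam-sterilized soil mixed with 20 g infested soil, sown with 18 cucumber seeds (Tokiwazibai), drenched with 100 ml aqueous suspension of 80% wettable powder. Benlate 50% wettable powder run as control. Disease scored two weeks after planting as percentage of healthy seedlings.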

Series [9] concerns Cladosporium cucumerinum (cucumber scab). The series can be described thus: Exterminating test on cucumber scab (Experimental Example 2). It is filed as in vivo. On the set-up: scale not given here. The settings on record: 500 ppm, 5 days after inoculation. An outline of the steps: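 Potted cucumber seedlings (cv. Sagamihanjiro, 3–4 leaf stage) were sprayed with an aqueous suspension of 80% wettable powder, then spray-inoculated with Cladosporium cucumerinum spores 24 h later. Plants were held 24 h in a moist chamber at 20° C, then in a greenhouse at 20° C. Infected Index was scored 5 days after inoculation from leaf counts by attack severity.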

For series [10], the system named is cucumber seedlings (variety: Sagamihanjiro). The series can be described thus: Phytotoxicity on cucumber seedlings (Experimental Example 2). It is filed as in vivo. The settings on record: 500 ppm. An outline of the steps:
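Cucumber seedlings at the 3–4 leaf stage sprayed with water-diluted 80% wettable powder, then spray-inoculated with Cladosporium cucumerinum spores 24 h later. Plants held 24 h in a moist chamber at 20° C, then kept in a greenhouse at 20° C.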

The test system of series [11] is Aspergillus niger. In words: Region of growth-inhibition around treated cotton cloth (Example 26). It is filed as cell-based. As to conditions: emulsifiable concentrate diluted 100 times. The protocol: (§2) The emulsifiable concentrates which were prepared by Example 20 were diluted with water 100 times to form an emulsion. A cloth of cotton was soaked into each emulsion for 2 minutes. The clothes were dried at room temperature and cut into a square of which a side was 1 cm long. Each kind of test bacteria and fungi was inoculated, separately, on plates of potato-agar and one square cloth placed on each of such plates. Test bacteria and fungi were cultivated at 28° C for 4 days. The width of the region of growth-inhibition which was formed a circumference of the cloth was measured.

The subject of the next series is Staphylococcus oureus. The series is described as above. In kind it is cell-based. As to conditions: emulsifiable concentrate diluted 100 times. As to the method: as §2
Series [12] has as its system Bacillus subtilis. The description is as above. In kind it is cell-based. The settings on record: emulsifiable concentrate diluted 100 times. The protocol: as §2
Series [13] deals with Penicillium Citrinum. Described as above. It is filed as cell-based. The settings on record: emulsifiable concentrate diluted 100 times. The protocol: as §2
The subject of another series is green algae. The series can be described thus: Degree of propagation on slime test boards (Example 27). As to conditions: same method, shaking culture for 2 days. In kind it is cell-based. The protocol: Zero point zero two (0.02) part of active compounds in the form of 10% water soluble concentrate which was prepared by Example 23 was added into 100 parts of Waxman's liquid medium. Peices of Wood iron (hereafter referred to as the slime test boards) were soaked into the Waxman's liquid medium. The bacteria which were gathered from circular water system were inoculated upon the Waxman's liquid medium and incubated at 27°-34° C by shaking culture for 2 days. The degree of propagation of the bacteria on the slime test boards was examined.
Thegrowth-inhibiting activity of active compounds against the fungi and the green algae was also examined by the same method as mentioned above.
The degree of propagation of the bacteria, fungi or green algae on the test boards is defined in terms of the following symbols.

Molecules are shown by their SMILES.

For the molecule `O=C(NC=C(Cl)Cl)c1cc(Br)ccc1[O-].O=C(NC=C(Cl)Cl)c1cc(Br)ccc1[O-].[Mn+2]` [compound 29], the “Effect Index” value in [1] was determined as 56.2. In addition, the Phytotoxicity entry in the series on summer orange seedlings is listed as “Nil”. In addition, the Minimum inhibitory amount in the series with Cladosporium harbarum is 10 µg/mL; with Staphylococcus aureus, 10 µg/mL; in the series with Aspergillus niger [2], 20 µg/mL; with Bacillus subtilis [3] it was 5 µg/mL; in the series with Escherichia coli it was 60 µg/mL; with Penicillium Citrinum [4], 20 µg/mL. The “Percentage of healthy seedlings” value is 69.8% in series [5], 55% in series [7] and 57.5% in [8]. For the same molecule, the figures for the “Degree of growth inhibition” value in series [6] (0.0125 %) and in [6] (0.025 %) were 2 and 3, respectively.
In the case of `O=C(NC=C(Cl)Cl)c1cc(Br)ccc1[O-].O=C(NC=C(Cl)Cl)c1cc(Br)ccc1[O-].[Zn+2]` [compound 25], the “Effect Index” value in series [1] amounted to 80.6. In addition, the Phytotoxicity entry (in the series with summer orange seedlings; in series [10]) was “Nil” in each case. In series [9], the “Infected Index” value is given as 12.1. Further, the Minimum inhibitory amount amounted to 10 µg/mL in the series with Cladosporium harbarum; 5 µg/mL in the series with Staphylococcus aureus; 20 µg/mL in the series with Aspergillus niger [2]; 5 µg/mL with Bacillus subtilis [3]; 60 µg/mL in the series on Escherichia coli; 20 µg/mL in the series on Penicillium Citrinum [4]. For the same molecule, the results for the “Degree of growth inhibition” value in series [6] (0.0125 %) and in series [6] (0.025 %) were 2 and 3, respectively. Also, the results for the “Percentage of healthy seedlings” value in series [7] and in [8] were 80% and 49.5%, respectively. Besides, the “width of the region of growth-inhibition” value with Aspergillus niger [11] is listed as 6 mm; with Staphylococcus oureus, 6 mm; with Bacillus subtilis [12], 6 mm; in the series on Penicillium Citrinum [13] it was 5 mm. The Degree of propagation result in the series with green algae is reported as “+ (the area of propagation is 1-25% on the slime test boards.)”.
